In patent US20150313217A1, “CONTROL AGENT FOR PLANT PEST AND/OR PLANT DISEASE” (RIKEN, priority 2012, published 2015):

Assay: Aggregation and precipitation of polyglycerin fatty acid ester on storage with oxoacid or organic solvent (Example 17)
Type: physicochemical
Set-up: key: 1: equivalent aggregation and precipitation to those of the reference were observed; 2: the aggregation and precipitation were approximately ¾ of those of the reference; 3: the aggregation and precipitation were approximately ½ of those of the reference; 4: the aggregation and precipitation were approximately ¼ of those of the reference; 5: no aggregate and precipitate were observed
Details: cool dark place, two months, visual
Procedure: A polyglycerin fatty acid ester and phosphoric acid were weighed using an electronic balance and put into a cylindrical plastic container (diameter of […]×height of 77 mm, volume 25 ml) in such a manner that the mixing ratio was 90:10 (mass ratio) (10 mass % of phosphoric acid (approximately 11.1 parts by mass of phosphoric acid per 100 parts by mass of the polyglycerin fatty acid) was added) or 99.9:0.1 (mass ratio) (0.1 mass % of phosphoric acid (approximately 0.1 parts by mass of phosphoric acid per 100 parts by mass of the polyglycerin fatty acid) was added). The total amount was adjusted to 20 ml. Then, the preparation was made uniform by sufficient stirring and mixing. The resultant was left standing in a cool dark place. Two months later, the degree of aggregation and precipitation of the polyglycerin fatty acid ester was visually determined based on the following determination criteria. […] Further, as a reference, a test was conducted by the same method as above using only a polyglycerin fatty acid ester to which no oxoacid or organic solvent was added. Index 1: equivalent aggregation and precipitation to those of the reference were observed. Index 2: the aggregation and precipitation were approximately ¾ of those of the reference.

[1] = adding ratio 0.1 % to polyglycerin fatty acid ester
[2] = adding ratio 10.0 % to polyglycerin fatty acid ester

Row | Result (index): degree of aggregation and precipitation of the polyglycerin fatty acid ester [1] | Result (index): degree of aggregation and precipitation of the polyglycerin fatty acid ester [2] | Compound
1 | 4 | 5 | CC(=O)O [acetic acid]
2 | 4 | 4 | CCO [ethyl alcohol]

Further lines, the molecule ahead of its results:

Row | Compound | Result (index): degree of aggregation and precipitation of the polyglycerin fatty acid ester [1] | Result (index): degree of aggregation and precipitation of the polyglycerin fatty acid ester [2]
3 | CC(O)C(=O)O (stereo not shown) [lactic acid] | 4 | 5
4 | CCCCCC [normal hexane] | 3 | 4
5 | O=P(O)(O)O [phosphoric acid] | 4 | 5
